# From article PMC3390344, “Antibacterial Activity and Mechanism of a Scorpion Venom Peptide Derivative In Vitro and In Vivo” (PLoS ONE, 2012)
# Ends that are not written are not given here.
# Test system: S. aureus
# Experiment: S. aureus mouse skin abrasion and infection model
# Format: in vivo, mouse (BALB/c)
# Protocol: Female BALB/c mice weighing 18–20 g were purchased from the Hubei Research Center of Laboratory Animals. All animal studies were approved by the Institutional Animal Care and Use Committee of Wuhan University.
# Kn2-7 or BmKn2 was prepared in gel form in 0.5% hydroxypropylcellulose to a final concentration of 5 mg/mL.
# Mice were injected with 150 mg/kg of cyclophosphamide 4 days prior to infection. Subsequently, the mice were injected with 100 mg/kg of cyclophosphamide 1 day prior to infection. After being anesthetized, the dorsal skin of the mice was shaved, and abrasions were produced in a 1×1 cm^2 area using a blade. These abrasion wounds damaged only the stratum corneum and upper layer of the epidermis, but not the dermis. Five minutes later, the wounds were inoculated with 20 µl of S. aureus (10^7–10^8 CFUs) using a micropipettor. A group of mice was killed 4 h after infection to control for the infectious dose. Four hours after infection, the wounds of the other mice were smeared with 20 µl of 5 mg/mL gel or a placebo gel, which was used as a negative control. The treatment lasted for 4 days, with two peptide gel applications being performed daily (morning and evening at 8 h intervals). After 4 days of treatment, the mice were killed, and the wound area of the skin was immediately excised and homogenized. Suitable dilutions of the homogenates were plated on LB plates to determine the number of living bacteria (CFUs).
# After the animals were euthanized, biopsy specimens of the excised wound area of the skin were collected and immediately fixed in phosphate-buffered formalin (10%, pH = 7.4). Then, the biopsy specimens were embedded in paraffin and stained with hematoxylin and eosin.
# In each experiment, the mean CFU was calculated using log10-transformed data. Based on the averages of three experiments, the mean, range, and coefficient of variation were calculated.
sequence,measurement,setting,value
FIKRIARLLRKIF [Kn2-7],Cutaneous viable counts (colony counts) of S. aureus,"female BALB/c mice, cyclophosphamide-pretreated, skin abrasion, 10^7–10^8 CFUs, topical 20 µl of 5 mg/mL gel (0.5% hydroxypropylcellulose) twice daily for 4 days, eight mice per group, versus placebo-treated and untreated mice",clearly lower
same,"Histological morphology of the skin sections, four days after infection","hematoxylin and eosin, topical 5 mg/mL gel twice daily for 4 days, untreated and placebo groups lost nearly all epidermis",recovered almost fully
same,"Appearance of the infected skin, four days after infection","topical 5 mg/mL gel twice daily for 4 days, placebo blisters became larger",healed
same,"Appearance of the infected skin, one day after infection","topical 5 mg/mL gel twice daily, placebo skin wet with blistering",scabbed over
